Reference: paper PMC9698358, “The Discovery of Novel Ferulic Acid Derivatives Incorporating Substituted Isopropanolamine Moieties as Potential Tobacco Mosaic Virus Helicase Inhibitors” (International Journal of Molecular Sciences, 2022)

Columns and labels:
TMV helicase [1] = molecular target: T1, TMV helicase (Tobacco mosaic virus, UniProt Q9IBK4); assay: ATPase activity, malachite green phosphate release; type: biochemical
T1 construct: helicase domain of the 126/183 kDa replicase

TMV helicase [2] = molecular target: T1, TMV helicase; assay: microscale thermophoresis; type: binding

T1 sequence (Q9IBK4 entry or part of it): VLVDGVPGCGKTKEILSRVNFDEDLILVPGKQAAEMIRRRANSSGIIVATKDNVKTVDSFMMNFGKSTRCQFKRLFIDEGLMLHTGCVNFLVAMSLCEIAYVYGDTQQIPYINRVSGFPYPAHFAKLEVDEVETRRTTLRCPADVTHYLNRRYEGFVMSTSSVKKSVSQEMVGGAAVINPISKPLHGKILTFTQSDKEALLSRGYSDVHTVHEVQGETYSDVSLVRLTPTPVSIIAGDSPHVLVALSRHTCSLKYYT

| Compound | inhibition at 200 µM (TMV helicase [1]) [%] | Kd (TMV helicase [2]) [µM] |
| --- | --- | --- |
| COC(=O)/C=C/c1ccc(OCC(O)CN2CCN(Cc3ccccc3C)CC2)c(OC)c1 (stereo not shown) [A31] | 47 | 13.5 |
| COc1cc(/C=C/C(=O)O)ccc1O [FA, 3-methoxy-4-hydroxycinnamic acid] | 26.4 | – |
| COC(=O)/C=C/c1ccc(OC[C@H](O)CN2CCOCC2)c(OC)c1 [R-A19] | 50.6 | 5.4 |
| COC(=O)/C=C/c1ccc(OC[C@@H](O)CN2CCOCC2)c(OC)c1 [S-A19] | 44.5 | 22.8 |
